Laboratory results: patent publication US7399825B2, “Synthetic peptide, inhibitor to DNA viruses” (priority 2003, dated 2008)
No end group written: not given here.

Columns and labels:
uninfected cells = settings: up to 200 μg/ml
herpes viruses = test: Antiviral activity of synthetic Herp versions (13, 10 and 5 amino acids); assay type: cell-based; settings: synthetic versions of Herp compared
Experimental: ID. […] The sequencing and synthesizing was contracted out to the Protein Core Laboratory of Baylor College of Medicine, Houston, Tex.
Infectivity Inhibition of HSV-1 and HSV-2 Viruses by Synthetic Herp: For comparison, Herpoxin and the synthetic Herps were tested in Vero cell cultures infected with HSV-1 or HSV-2 viruses. The cells were infected in serial concentrations from 10^2 to 10^8. Three wells were used for each concentration. After absorption of the virus the cultures were divided into three groups. Group one received medium containing PBS as a […] control, group two received medium containing 10 μg/ml of Herpoxin (natural Herp) and in the remaining group the medium was incorporated with 10 μg/ml synthetic Herp (Syn-Herp-10 amino acid (AA) version). The tests were read after six days and TCID/50 were calculated from CPE.

NLYQFKNMIQ [Syn Herp, Asn-Leu-Tyr-Gln-Phe-Lys-Asn-Met-Ile-Gln]
effect on the respective uninfected cells (uninfected cells): no effect

NLYQFKNMIQQFL [SEQ. ID. NO. 1]
antiviral activity / inhibition of herpes viruses (herpes viruses): good results

Asn-Leu-Tyr-Gln-Phe (NLYQF; SYNTHESIZED. CORRESPONDS TO POSITIONS 1-5 OF SEQ. ID. NO. 1.) [SEQ. ID. NO. 3, synthetic Herp of 5 amino acids from the N-terminal]
antiviral activity / inhibition of herpes viruses (herpes viruses): good results
